According to PubChem BioAssay AID1033 (Sanford-Burnham Center for Chemical Genomics, 2008):
Activity calls are given as the source filed them. No rule for the calls is given here.

biological target: Chaperone protein DnaK (Escherichia coli (strain K12)) (UniProt P0A6Y8); assay: E. coli DnaK SBD ligand binding – biophysical, NMR, chaperone (AID 1033); settings: Purified DnaK SBD
Sequence (P0A6Y8 whole entry, looked up): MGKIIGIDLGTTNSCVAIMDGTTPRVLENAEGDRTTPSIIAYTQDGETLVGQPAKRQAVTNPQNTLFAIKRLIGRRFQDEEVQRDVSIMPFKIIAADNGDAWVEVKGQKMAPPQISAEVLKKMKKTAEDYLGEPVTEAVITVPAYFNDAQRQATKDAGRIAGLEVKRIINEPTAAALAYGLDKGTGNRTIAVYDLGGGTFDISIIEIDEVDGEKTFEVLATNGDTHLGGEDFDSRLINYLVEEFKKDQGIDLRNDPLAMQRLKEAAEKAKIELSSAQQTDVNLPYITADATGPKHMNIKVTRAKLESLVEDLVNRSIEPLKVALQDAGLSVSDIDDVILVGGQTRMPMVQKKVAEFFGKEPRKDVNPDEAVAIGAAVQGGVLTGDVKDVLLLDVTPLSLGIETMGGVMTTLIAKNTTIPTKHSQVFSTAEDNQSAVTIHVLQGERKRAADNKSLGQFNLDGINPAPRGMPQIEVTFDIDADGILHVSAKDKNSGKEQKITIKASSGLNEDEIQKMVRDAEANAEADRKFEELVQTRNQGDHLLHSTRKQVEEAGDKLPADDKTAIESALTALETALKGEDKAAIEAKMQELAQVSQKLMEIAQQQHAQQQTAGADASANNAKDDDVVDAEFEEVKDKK

SMILES | Kd
Cc1ccc(OCC(=O)n2cnnc2N)c(C)c1 | > 4 mM (inactive)
Cn1cnnc1SCC(=O)Nc1nccs1 | > 4 mM (inactive)
O=C(O)CCN1CCc2ccccc2C1c1ccncc1 (configuration not stated) | > 4 mM (inactive)
O=C(O)CSc1cccc2cccnc12 | > 4 mM (inactive)
O=C1NC(=O)C(C(=S)Nc2ccccc2)C(=O)N1 | > 4 mM (inactive)
CCCCCCCCCCCCCCCCCCOCC(O)CO (configuration not stated) | > 4 mM (inactive)
COc1ccc(-c2oc3cc(O[C@H]4O[C@H](CO)[C@@H](O)[C@H](O)[C@H]4O)c(OC)c(O)c3c(=O)c2OC)cc1O | > 4 mM (inactive)
O=C(O)CSCc1ccc(Cl)cc1 | > 4 mM (inactive)
O=C(c1ccco1)N1CCN(c2ccc(Cl)cc2)CC1 | > 4 mM (inactive)
Clc1ccc2c(N3CCNCC3)ccnc2c1 | > 4 mM (inactive)
CN1CCCC1C(=O)O (configuration not stated) | > 4 mM (inactive)
CC(=O)c1c(C)nc2ccccc2c1N | > 4 mM (inactive)
NC(=O)COc1ccccc1O | > 4 mM (inactive)
Cn1[nH]c(C(F)(F)F)cc1=O | > 4 mM (inactive)
O=C1C2CC=C(Cl)CC2C(=O)N1c1ccccc1O (configuration not stated) | > 4 mM (inactive)
COc1ccc([C@@H](C)C(=O)c2ccc(O)cc2O)cc1 | > 4 mM (inactive)
CC(CC(=O)NN)C1(O)CCCCC1 (configuration not stated) | > 4 mM (inactive)
O=C1CCC(=O)N1CN1CCOCC1 | > 4 mM (inactive)
O=C(O)CC1Sc2ccccc2NC1=O (configuration not stated) | > 4 mM (inactive)
O=C1NC(=S)S/C1=C/c1ccncc1 | > 4 mM (inactive)
CCC(C)C(=O)OC1[C@@H]2CC3=C4CC(=O)O[C@@H](c5ccoc5)[C@]4(C)CCC3C(C)(C2=O)[C@@H](CC(=O)OC)C1(C)C (some centres not stated) | > 4 mM (inactive)
Cc1cc(O)c(C=O)c(O)c1C(=O)O | > 4 mM (inactive)
c1ccc(-c2csc(Nc3cccnc3)n2)nc1 | > 4 mM (inactive)
CCOC(=O)c1c(C)cc(O)c(C)c1O | > 4 mM (inactive)

SMILES | Kd
Cc1cc[n+](-c2nc([O-])sc2C=O)cc1 | > 4 mM (inactive)
COc1ccc(S(=O)(=O)N2CCOCC2)cc1C(C)C | > 4 mM (inactive)
Cc1cc(C(=O)NCc2ccccc2Br)no1 | > 4 mM (inactive)
O=c1c(O)c(-c2ccccc2)oc2ccccc12 | > 4 mM (inactive)
CC(=O)Nc1ccc(NC(C)=O)c(C(F)(F)F)c1 | > 4 mM (inactive)
Cc1ccc(N2C(=O)CC(Sc3ncn[nH]3)C2=O)cc1 (configuration not stated) | > 4 mM (inactive)
CC1(C)Cc2nc3[nH]c(=S)[nH]c(=O)c3cc2CO1 | > 4 mM (inactive)
CCN1CCC(NC2CCC(O)CC2)CC1 (configuration not stated) | > 4 mM (inactive)
O=C1c2ccccc2C(=O)N1CCc1ccccn1 | > 4 mM (inactive)
CC1(C)Oc2ccc(N)cc2O1 | > 4 mM (inactive)
CC(C)CC(=O)NC1CCSC1=O (configuration not stated) | > 4 mM (inactive)
O=C1NC(=O)C(Cc2cccs2)C(=O)N1 | > 4 mM (inactive)
O=C(c1ccc(F)cc1)C1CCNCC1 | > 4 mM (inactive)
Cc1cc(C)n2nc(C(=O)NCc3ccco3)nc2n1 | > 4 mM (inactive)
OC(c1ccccc1)c1ccccn1 (configuration not stated) | > 4 mM (inactive)
CC(=O)c1cnc2nc(C(F)(F)F)nn2c1C | > 4 mM (inactive)
O=C(O)c1snnc1-c1ccccc1 | > 4 mM (inactive)
O=C(O)CCC(=O)Nc1nccs1 | > 4 mM (inactive)
Cc1cc(=O)n(CCc2ccccc2)c(O)c1C#N | > 4 mM (inactive)
Nc1nc(SCC(=O)c2ccc([N+](=O)[O-])cc2)n[nH]1 | > 4 mM (inactive)
Cn1c(NCC(=O)O)nc2c1c(=O)[nH]c(=O)n2C | > 4 mM (inactive)
Cc1cc(N)n(-c2ccccc2)n1 | > 4 mM (inactive)
O=C(Nc1cnccn1)c1ccncc1 | > 4 mM (inactive)
CSc1nnc2c(n1)OC(C)=Nc1ccccc1-2 | > 4 mM (inactive)

SMILES | Kd
CC1(C)NC(=O)N(CCOc2ccc3c(c2)CCC3)C1=O | > 4 mM (inactive)
Cc1nn(C)c2sc(CO)cc12 | > 4 mM (inactive)
Cc1cc(NC(=O)Cc2c(F)cccc2Cl)no1 | > 4 mM (inactive)
COC(=O)Nc1nc2c(C)cccc2s1 | > 4 mM (inactive)
Nc1cccnc1N1CCOCC1 | > 4 mM (inactive)
COc1cccc(-c2csc(NC(C)=O)n2)c1 | > 4 mM (inactive)
CN1CCN(CC(=O)NC2CCCCC2)CC1 | > 4 mM (inactive)
CC(=O)O[C@H]1C(=O)[C@@]2(C)C([C@H](OC(=O)c3ccccc3)[C@]3(O)C[C@H](OC(=O)[C@H](O)[C@@H](NC(=O)c4ccccc4)c4ccccc4)C(C)=C1C3(C)C)[C@]1(OC(C)=O)CO[C@@H]1C[C@@H]2O (some centres not stated) | > 4 mM (inactive)
O=[N+]([O-])c1ccc2c(c1)N([O-])C1(CCCCC1)[N+]2=O | > 4 mM (inactive)
COc1ccc2c(c1)OCc1c-2oc2cc(OC)ccc12 | > 4 mM (inactive)
CC(=O)NCC1(c2ccccc2)CCOCC1 | > 4 mM (inactive)
Cc1nn(-c2ccccc2)nc1CO | > 4 mM (inactive)
COc1ccc(-c2cc(=O)c3c(O)cc(O[C@H]4O[C@H](CO[C@@H]5O[C@@H](C)[C@H](O)[C@@H](O)[C@H]5O)[C@@H](O)[C@H](O)[C@H]4O)cc3o2)cc1 | > 4 mM (inactive)
c1cc2n(c1)CCNC2c1ccncc1 (configuration not stated) | > 4 mM (inactive)
CCC(=O)NC(=S)Nc1ccc(O)cc1 | > 4 mM (inactive)
O=C(O)CNC(=O)c1ccc([N+](=O)[O-])cc1 | > 4 mM (inactive)
NC(CC(=O)O)c1ccccc1 (configuration not stated) | > 4 mM (inactive)
CCOC(=O)CN1C(=O)c2ccccc2C1=O | > 4 mM (inactive)
c1ccc(-n2ncc3c(NCc4ccco4)ncnc32)cc1 | > 4 mM (inactive)
NS(=O)(=O)c1ccc2c3c(cccc13)C(=O)N2 | > 4 mM (inactive)
CCCNC(=O)CSc1nnc(C)s1 | > 4 mM (inactive)
Cc1ccc(C(C)C)cc2c(C)ccc1-2 | > 4 mM (inactive)
O=C(Nc1ccon1)c1cc2c(s1)CCCC2 | > 4 mM (inactive)
C/C=C(/C)C(=O)O[C@@H]1Cc2c(ccc3ccc(=O)oc23)OC1(C)C | > 4 mM (inactive)

SMILES | Kd
O=C(O)CN1CCNCC1 | > 4 mM (inactive)
COc1cc(C(=O)O[C@H]2CC[C@@]3(C)[C@@H]4CC[C@H]5[C@]6(O)C[C@H](O)[C@@]7(O)[C@@H](CN8C[C@@H](C)CC[C@H]8[C@@]7(C)O)[C@]6(O)C[C@@]53OC24O)cc(OC)c1OC | > 4 mM (inactive)
O=C(Cn1cncn1)c1ccc(F)c(F)c1 | > 4 mM (inactive)
O=C(Nc1c[nH]c(=O)[nH]c1=O)c1cccs1 | > 4 mM (inactive)
O=C1C=CC(=O)N1c1ccc(N2CCOCC2)cc1 | > 4 mM (inactive)
Cc1cc(NC(=O)c2ccc3c(c2)OCCO3)no1 | > 4 mM (inactive)
CCOC(=O)C1=C(C)N2CCN=C2S1 | > 4 mM (inactive)
c1ccc2c(NC3=NCCS3)cccc2c1 | > 4 mM (inactive)
O=c1c[n+]([O-])c2ccccc2n1OCc1ccccn1 | > 4 mM (inactive)
CC(=O)O[C@H]1C[C@@H](OC(C)=O)C(C)(C)C2C[C@@H](OC(C)=O)[C@]3(C)C(CC[C@@]4(C)[C@H](c5ccoc5)OC(=O)[C@H]5O[C@]543)[C@]21C (some centres not stated) | > 4 mM (inactive)
Cc1cc(C(=O)NCc2cccnc2)no1 | > 4 mM (inactive)
COc1ccc(-c2nc(N)n(C(C)=O)n2)cc1 | > 4 mM (inactive)
O=C1NC(=O)C(C(C[N+](=O)[O-])c2ccc(O)cc2)C(=O)N1 (configuration not stated) | > 4 mM (inactive)
Oc1ccc(C(=S)N2CCCCC2)cc1Cl | > 4 mM (inactive)
NC(N)=NOCC[C@H](N)C(=O)O | > 4 mM (inactive)
Cc1c(N=Cc2ccc[nH]2)c(=O)n(-c2ccccc2)n1C | > 4 mM (inactive)
CS(=O)(=O)N/N=C/c1cccs1 | > 4 mM (inactive)
Cn1c(O)c(C=NCC2CCNCC2)c(=O)n(C)c1=O | > 4 mM (inactive)
CN1CCC(NC(=O)Cc2c(F)cccc2Cl)CC1 | > 4 mM (inactive)
COC(=O)c1ccc(/C=C2/NC(=S)NC2=O)cc1 | > 4 mM (inactive)
CCn1c2ccccc2c2nn(C)c(=N)nc21 | > 4 mM (inactive)
Nc1cc(F)cc(F)c1 | > 4 mM (inactive)
O=C(c1ccccc1)c1ccccc1C(=O)N1CCCC1 | > 4 mM (inactive)
O=C(c1nc2ncccn2n1)N1CCc2ccccc2C1 | > 4 mM (inactive)

SMILES | Kd
CCN1CCc2c(sc(N)c2C(N)=O)C1 | > 4 mM (inactive)
COc1cc(S(=O)(=O)N(C)C)ccc1F | > 4 mM (inactive)
O=S1(=O)CCC(NC(=S)Nc2ccccc2)C1 (configuration not stated) | > 4 mM (inactive)
COc1ccc(-c2cc(=O)c3ccccc3o2)cc1 | > 4 mM (inactive)
O=C(Nn1cnnc1)c1cc2c(s1)CCCCC2 | > 4 mM (inactive)
Nn1c(CN2CCCCC2)nc2ccccc2c1=O | > 4 mM (inactive)
Nc1ncnc(Cl)c1[N+](=O)[O-] | > 4 mM (inactive)
Nc1ccc2c(c1)N1CCN=C1S2 | > 4 mM (inactive)
COc1ccc(/C=C2/C(=O)N=C(N)N2C)cc1OC | > 4 mM (inactive)
O=C(O)CC1NCCNC1=O (configuration not stated) | > 4 mM (inactive)
COc1c2c(cc3occ(-c4ccc5c(c4)OCO5)c(=O)c13)OC(C)(C)C=C2 | > 4 mM (inactive)
O=C1C=CC(=O)N1c1ccccc1O | > 4 mM (inactive)
O=C(O)CNC(=O)c1ccccc1 | > 4 mM (inactive)
Cc1ccccc1N1CCN(C(=O)C2CCCCC2)CC1 | > 4 mM (inactive)
CN(C(N)=O)C1(C)CCS(=O)(=O)C1 (configuration not stated) | > 4 mM (inactive)
COc1ccc(C2CC(=O)NN2)cc1OC1CCCC1 (configuration not stated) | > 4 mM (inactive)
OCC1CCN(Cc2ccccc2)CC1 | > 4 mM (inactive)
O=c1cc(-c2ccccc2)oc2cc(O)cc(O)c12 | > 4 mM (inactive)
Cc1ccccc1C(=O)Nc1cccc(N)c1 | > 4 mM (inactive)
CC(=O)O[C@]1(C)CC[C@@]23CC1C(C)(C)[C@@H]2CC[C@H]3C | > 4 mM (inactive)
C=C[C@@](C)(O)CCC1C(=C)CCC2[C@@](C)(CO)CCC[C@]12C (some centres not stated) | > 4 mM (inactive)
